Test [1] has as its target T1, wild-type androgen receptor (AR) (Homo sapiens, UniProt P10275).
T1 sequence (P10275 1-920): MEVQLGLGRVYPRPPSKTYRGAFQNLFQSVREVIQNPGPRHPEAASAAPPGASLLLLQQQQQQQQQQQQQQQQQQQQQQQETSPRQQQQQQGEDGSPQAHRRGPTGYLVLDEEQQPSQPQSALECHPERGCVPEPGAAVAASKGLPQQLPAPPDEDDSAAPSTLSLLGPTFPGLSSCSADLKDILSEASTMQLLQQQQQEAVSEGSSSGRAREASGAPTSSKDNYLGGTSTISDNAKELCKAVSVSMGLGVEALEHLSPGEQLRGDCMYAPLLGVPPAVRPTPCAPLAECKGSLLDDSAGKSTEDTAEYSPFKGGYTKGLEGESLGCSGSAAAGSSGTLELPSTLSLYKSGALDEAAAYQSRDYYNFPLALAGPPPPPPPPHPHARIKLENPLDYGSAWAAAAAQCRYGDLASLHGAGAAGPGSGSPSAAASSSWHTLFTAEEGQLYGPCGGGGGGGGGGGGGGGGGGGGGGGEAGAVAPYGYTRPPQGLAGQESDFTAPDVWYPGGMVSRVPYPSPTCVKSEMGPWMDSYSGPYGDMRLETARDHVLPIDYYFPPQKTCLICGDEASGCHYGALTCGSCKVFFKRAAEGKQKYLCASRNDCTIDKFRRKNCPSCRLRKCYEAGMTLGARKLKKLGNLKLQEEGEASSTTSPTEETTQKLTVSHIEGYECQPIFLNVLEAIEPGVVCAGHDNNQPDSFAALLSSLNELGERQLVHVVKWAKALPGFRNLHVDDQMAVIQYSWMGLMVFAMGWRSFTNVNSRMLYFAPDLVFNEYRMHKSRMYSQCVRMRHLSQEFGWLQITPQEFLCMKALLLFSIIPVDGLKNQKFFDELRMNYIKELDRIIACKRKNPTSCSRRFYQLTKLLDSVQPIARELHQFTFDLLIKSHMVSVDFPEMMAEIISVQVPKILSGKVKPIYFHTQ
Description: AR binding inhibitory test (wild type). The following applies: 1 μM compound, 3 nM miboleron, 4° C. for 3 hours, dextran/charcoal B/F separation; read-out: Inhibitory rate (%) at 1 μM, Wild type. As to the method: (§1) 3 nM miboleron and 1 μM of a compound was added to a solution containing a wild-type androgen receptor (AR) or an androgen receptor (AR) having a LNCaP type mutation, this was incubated at 4° C. for 3 hours, and B(Bound)/F(Free) separation was performed by a dextran/charcoal method. A label count of B was measured, and an inhibition rate of the compound was calculated.

Test [2] concerns the target T2, androgen receptor (AR) having a LNCaP type mutation (Homo sapiens, UniProt P10275, T878A).
T2 sequence (P10275 1-920 T878A): T1 sequence (P10275 1-920) with T878A
Description: AR binding inhibitory test (LNCaP type). To be noted: 1 μM compound, 3 nM miboleron, 4° C. for 3 hours, dextran/charcoal B/F separation; read-out: Inhibitory rate (%) at 1 μM, LNCaP type. The protocol:
as §1

Test [3] deals with human prostate cancer cell LNCaP-FGC. Description: Prostate specific antigen (PSA) production inhibition in prostate cancer cell. The format is cell-based. The following applies: 72 h, 1 μM compound, testosterone 1 ng/mL, three days, PSA in culture supernatant by ELISA, testosterone non-added group 100%, testosterone-added group 0%, read-out: PSA production Inhibitory rate (%) at 1 μM. As to the method: A human prostate cancer cell LNCaP-FGC was inoculated on a 96-well plate at 5000 cells/100 μL/well and, on the next day, testosterone having the final concentration of 1 ng/mL and 1 μM of a compound were added. Three days after addition, the PSA concentration in the culture supernatant was measured by ELISA, and a PSA production inhibition rate was calculated, letting the rate of a testosterone non-added group to be 100%, and letting the rate of a testosterone-added group to be 0%.
In general terms: In an ELISA, binding on a coated surface is turned into a signal by an enzyme label.

A further test concerns the target T3, mutated AR (W741C) (Homo sapiens, UniProt P10275, W742C).
T3 construct: expressed in transfected cells; host or cells: Cos-7
T3 sequence (P10275 1-920 W742C): T1 sequence (P10275 1-920) with W742C
Description: AR transcription inhibition test (luciferase reporter in Cos-7). It is filed as cell-based. To be noted: 0.1 μM compound, DHT 0.04 μM, 24 hours, luciferase activity, relative to a control. As to the method: 5,000,000 Cells of Cos-7 was inoculated on a flask, and cultured in a culturing solution (DMEM+10% Dextran Charcoal (DCC)-Fetal Bovine Serum (FBS)+2 mM glutamine) for 24 hours, and a vector DNA in which mutated AR (W741C) had been inserted, and a vector DNA in which a luciferase gene had been connected downstream of an androgen-responsive promoter were transfected by a liposome method. After two hours, the medium was exchanged, the cells were cultured for 3 hours, DHT (dihydrotestosterone) having the final concentration of 0.04 μM and an assessment compound having the final concentration of 0.1 μM were added, and the cells were cultured for 24 hours, and luciferase activity was measured to investigate AR transcription inhibition activity of the assessment compound.

The next test concerns mouse prostate. Description: Test of reduction in weight of mouse prostate. The format is in vivo. To be noted: orally 50 mg/kg/day for 7 days, 8 week old male mouse; drug non-addition 0%, castration 100%. The text has this: A rate of reduction in a prostate weight is shown in Table 5, letting at drug non-addition to be 0%, and letting at castration to be 100%.

Changes are numbered by the printed parent chain.

Consider `CCc1c(C#N)c(-c2ccc(C#N)cc2)c(C)n1Cc1cnc(Cl)c(CO)c1` [Compound 2, 1-{[6-Chloro-5-(hydroxymethyl)pyridin-3-yl]methyl}-4-(4-cyanophenyl)-2-ethyl-5-methyl-1H-pyrrole-3-carbonitrile], for which the inhibition at 1 µM in test [1] amounted to 99%; in test [2], 94%; in test [3], 95%. Moreover, the “AR transcription Inhibitory rate (%) at 0.1 μM” value on mutated AR (W741C) turned out to be 30%.

In the case of `CCCc1c(C#N)c(-c2ccc(C#N)cc2)c(C)n1Cc1cnc(Cl)c(CO)c1` [Compound 3, 1-{[6-Chloro-5-(hydroxymethyl)pyridin-3-yl]methyl}-4-(4-cyanophenyl)-5-methyl-2-propyl-1H-pyrrole-3-carbonitrile], the inhibition at 1 µM in test [1] came to 96%; in test [2], 99%; in test [3], 99%. In addition, the “AR transcription Inhibitory rate (%) at 0.1 μM” value at mutated AR (W741C) is listed as 78%.

In the case of `Cc1c(-c2ccc(C#N)cc2)c(C#N)c(C2CC2)n1Cc1cnc(Cl)c(CO)c1` [Compound 5, 1-{[6-Chloro-5-(hydroxymethyl)pyridin-3-yl]methyl}-4-(4-cyanophenyl)-2-cyclopropyl-5-methyl-1H-pyrrole-3-carbonitrile], the inhibition at 1 µM in test [1] was found to be 98%; in test [2] it was 96%; in test [3] it was 99%. The “AR transcription Inhibitory rate (%) at 0.1 μM” value at mutated AR (W741C) was 78%.

On to `Cc1c(C#N)c(-c2cccc(C#N)c2)c(C)n1Cc1cnc(Cl)c(CO)c1` [Compound 7, 1-{[6-Chloro-5-(hydroxymethyl)pyridin-3-yl]methyl}-4-(3-cyanophenyl)-2,5-dimethyl-1H-pyrrole-3-carbonitrile], for which, in test [3], the inhibition at 1 µM came out at 94%.

Regarding `Cc1c(C#N)c(-c2ccc(C#N)cc2)c(C)n1Cc1ccc(Cl)c(CO)c1` [Compound 26, 1-[4-Chloro-3-(hydroxymethyl)benzyl]-4-(4-cyanophenyl)-2,5-dimethyl-1H-pyrrole-3-carbonitrile], the inhibition at 1 µM in test [1] is 98%; in test [2] it was 93%; in test [3], 97%. Also, the “AR transcription Inhibitory rate (%) at 0.1 μM” value at mutated AR (W741C) is 53%.

For `Cc1c(C#N)c(-c2ccc(C#N)cc2)c(C)n1Cc1cnc(Cl)c(C(O)C(F)(F)F)c1` (stereo not shown) [Example 38, 1-{[6-Chloro-5-(2,2,2-trifluoro-1-hydroxyethyl)pyridin-3-yl]methyl}-4-(4-cyanophenyl)-2,5-dimethyl-1H-pyrrole-3-carbonitrile], the inhibition at 1 µM in test [3] was determined as 94%. Moreover, in the test on mouse prostate, the “Reduction rate (%) of prostate weight” value worked out at 68%.

Take `Cc1cc(-c2ccc(C#N)cc2)c(C)n1Cc1cnc(Cl)c(CO)c1` [Example 46, 4-(1-{[6-Chloro-5-(hydroxymethyl)pyridin-3-yl]methyl}-2,5-dimethyl-1H-pyrrol-3-yl)benzonitrile]: the inhibition at 1 µM in test [1] was found to be 86%; in test [2] it was 89%; in test [3] it was 95%.

With `CCc1cc(-c2ccc(C#N)cc2)c(C)n1Cc1cnc(Cl)c(CO)c1` [Example 47, 4-(1-{[6-Chloro-5-(hydroxymethyl)pyridin-3-yl]methyl}-5-ethyl-2-methyl-1H-pyrrol-3-yl)benzonitrile], the inhibition at 1 µM in test [1] is 50%; in test [2], 81%.

With `Cc1c(-c2ccc(C#N)cc2)cc(C2CC2)n1Cc1cnc(Cl)c(CO)c1` [Example 48, 4-(1-{[6-Chloro-5-(hydroxymethyl)pyridin-3-yl]methyl}-5-cyclopropyl-2-methyl-1H-pyrrol-3-yl)benzonitrile], the figures for the inhibition at 1 µM in test [1], in test [2] and in test [3] were 30%, 87% and 98%, respectively.

On to `Cc1cc(-c2ccc(C#N)cc2)c(C#N)n1Cc1cnc(Cl)c(CO)c1` [Example 52, 1-{[6-Chloro-5-(hydroxymethyl)pyridin-3-yl]methyl}-3-(4-cyanophenyl)-5-methyl-1H-pyrrole-2-carbonitrile], for which, in test [3], the inhibition at 1 µM is 99%.

The values are drawn from US20080176906A1, “Substituted Pyrrole Derivative” (Takeda Pharmaceutical Company Limited, priority 2004, published 2008).
